Our source for the Tmax values is ChEMBL document CHEMBL3832040, “DailyMed|setid=dbe8d4f6-c338-4076-9ae9-2e86c0767226 | TRIAMTERENE AND HYDROCHLOROTHIAZIDE- triamterene and hydrochlorothiazide tablet|Aidarex Pharmaceuticals LLC”.

The term Tmax denotes the time from dosing to the highest level.

This series can be described thus: Evaluation of the Tmax of Hydrochlorothiazide following oral administration of hydrochlorothiazide. It is filed as ADME, organism-based. The conditions noted are these: human, in vivo, dosed compound id 30, dosed compound name HYDROCHLOROTHIAZIDE, tissue Plasma.

On to `NS(=O)(=O)c1cc2c(cc1Cl)NCNS2(=O)=O` [HYDROCHLOROTHIAZIDE], for which the Tmax worked out at 2 h.
